Laboratory results from patent US20110053900A1, “PROGESTERONE ANTAGONISTS SUCH AS CDB-4124 IN THE TREATMENT OF BREAST CANCER” (Repros Therapeutics inc, priority 2008, published 2011).

Experiments:
estrogen receptor (ER) = experiment: Expression of estrogen receptor in tumors (IHC); type: in vivo, rat; details: 10 mg/kg
Procedure: The tumors that were evaluated for proliferation and apoptosis were also assessed for expression of estrogen and progesterone receptors by immunohistochemistry (IHC). The percentage of cells positive for ER and PR was determined and analyzed. Tumors were grouped into four different categories: tumors with 0% of cells expressing ER, tumors with 10% of cells expressing ER, tumors with 15 to 30% of cells expressing ER and tumors with 30-50% of cells expressing ER. In general, untreated tumors consistently expressed ER. Out of 12 tumors analyzed, all 12 expressed ER. Four out of these 12 tumors contained 30-50% ER-positive cells.

[1] = target: T1, glucocorticoid receptor (rbGR) (Oryctolagus cuniculus, UniProt P59667); experiment: Glucocorticoid receptor binding; design: species or system rabbit
T1 construct: cytosol containing PR or GR were prepared in TEGMD buffer; from tissue; host or cells: thymus of estradiol-primed immature rabbits (cytosol)
T1 sequence (P59667 1-772): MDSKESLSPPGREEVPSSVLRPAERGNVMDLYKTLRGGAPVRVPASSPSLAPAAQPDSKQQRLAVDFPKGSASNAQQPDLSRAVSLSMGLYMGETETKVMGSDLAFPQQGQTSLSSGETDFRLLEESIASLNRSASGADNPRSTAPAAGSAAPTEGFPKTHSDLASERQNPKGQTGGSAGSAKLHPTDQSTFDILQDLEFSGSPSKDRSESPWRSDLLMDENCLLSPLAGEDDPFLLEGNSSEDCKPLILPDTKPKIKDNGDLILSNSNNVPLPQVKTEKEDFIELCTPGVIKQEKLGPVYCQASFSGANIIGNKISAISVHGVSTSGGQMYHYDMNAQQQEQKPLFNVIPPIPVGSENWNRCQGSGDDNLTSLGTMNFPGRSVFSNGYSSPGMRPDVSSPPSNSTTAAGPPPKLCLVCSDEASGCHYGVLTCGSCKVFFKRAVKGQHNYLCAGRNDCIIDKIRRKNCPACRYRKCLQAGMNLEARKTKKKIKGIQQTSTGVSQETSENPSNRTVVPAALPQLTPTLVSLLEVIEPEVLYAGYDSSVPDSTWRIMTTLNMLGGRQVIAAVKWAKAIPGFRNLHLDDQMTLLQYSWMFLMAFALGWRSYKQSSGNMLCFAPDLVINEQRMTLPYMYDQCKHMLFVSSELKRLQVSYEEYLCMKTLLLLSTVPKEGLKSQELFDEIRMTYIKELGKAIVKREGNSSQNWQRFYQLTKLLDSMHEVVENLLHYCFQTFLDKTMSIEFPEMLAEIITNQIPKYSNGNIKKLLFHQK
Procedure: Certain antiprogestins were tested in receptor-binding assays for their ability to bind rabbit progesterone receptor (rbPR) and glucocorticoid receptor (rbGR). […] For PR binding, the cytosol was incubated with 6 nM 1,2-[^3H]progesterone (50.0 Ci/mmole) and competitors were added at concentrations from 2 to 100 nM. For binding to GR, the cytosol was incubated with 6 nM 6,7-[^3H]-dexamethasone (40 Ci/mmol) and test compounds were added at concentrations from 20 to 100 nM. After overnight incubation at 4° C., bound and unbound [^3H] steroids were separated by addition of dextran-coated charcoal and centrifugation at 2100×g for 15 min at 4
C. Supernatants containing the [3H]-steroid receptor complexes were decanted into vials containing 4 ml Optifluor (Packard Instrument Co.), vortexed, equilibrated in a liquid scintillation counter for 30 minutes and then counted for 2 minutes. […] The standards for the PR and GR assays were unlabeled progesterone and dexamethasone, respectively.

[2] = Animal weight during the study; type: in vivo; details: weighed weekly, 27-week study period
Excerpt: The weights of the control animals were compared to those receiving hormonal treatment to better assess toxicity, especially that due to CDB-4124. The animals were weighed weekly during the 27-week study period.

[3] = Serum corticosterone by ELISA; type: in vivo, rat; details: 20 or 10 mg/kg
Procedure: The animals were assessed three times for their levels of progesterone: initially, when they were about to go on treatment; a second time after 21 days of treatment; and finally after treatment at sacrifice which was 2-4 days after the last s.c. injection. All blood samples were taken by heart puncture; serum was prepared and held frozen at −40° C. The levels of the steroid hormones progesterone, cortisol, and corticosterone were determined by ELISA.
The concentrations of steroid hormones were determined three times during the study: before the beginning of treatments, after 21 days of treatment and finally after treatment at sacrifice which was 2-4 days after the last s.c. injection. All samples were taken by heart puncture. Serum was obtained and held frozen at −40° C. The levels of steroid hormones were determined by ELISA.
Corticosterone is the most abundant glucocorticoid in rats. The effects of the SPRMs on cortisol may be secondary to strong effects on corticosterone. […] The levels of corticosterone were 10-40 times higher than the levels of cortisol. However, almost no difference between groups with respect to mean corticosterone levels was observed. […] There was no statistical difference in levels of corticosterone between animals with tumors and without tumors at either 21-days (p=0.94, t-test, two-tailed) or at sacrifice (p=0.37, t-test, two-tailed).

SMILES | number of cells expressing ER in tumors (in words) (estrogen receptor (ER)) | anti-glucocorticoid receptor activity / glucocorticoid receptor binding (in words) [1] | toxicity by animal weight, treated vs. control (in words) [2] | effect on serum corticosterone (in words) [3]
CC#C[C@]1(O)CC[C@H]2[C@@H]3CCC4=CC(=O)CCC4=C3[C@@H](c3ccc(N(C)C)cc3)C[C@@]21C [RU 486, mifepristone, reference compound] | lowered the number of cells that express ERs | moderately active in glucocorticoid receptor binding | – | –
COCC(=O)[C@@]1(OC(C)=O)CC[C@H]2[C@@H]3CCC4=CC(=O)CCC4=C3[C@@H](c3ccc(N(C)C)cc3)C[C@@]21C [CDB-4124, 21-methoxy-17α-acetoxy-11β-(4 N,N-dimethylaminophenyl)-19-norpregna-4,9-diene-3,20-dione] | – | – | not toxic, even at a high dose level | no strong effect
